Test results as given in patent US20130101632A1, “NANOPARTICULATE FORMULATIONS OF MITHRAMYCIN OR MITHRAMYCIN ANALOGUES FOR TREATING CANCER” (UNIVERSITY OF KENTUCKY RESEARCH FOUNDATION, priority 2011, published 2013).

How the values were obtained:
HT29 colon cancer cells = assay: In vivo subcutaneous tumor model; settings: 2 mg/kg, 100 μL injection, after 18 days, HT29 subcutaneous tumors in nude mice
Procedure: Subcutaneous tumor models were established with HT29 colon cancer cells. Nude/nude mice at 8 weeks old were injected with 3×10^6 HT29 cells subcutaneously in the right flank. The tumors were then allowed to grow to a volume of ˜130 mm^3. Once the tumors reached a volume of 130 mm^3 the mice were injected with 100 μL of the desired treatment. For the control group the mice were injected with PBS. For the SK free drug and SK CNA groups the final treatment dose was 7 mg/kg and an injection volume of 100 μL. For SDK free drug and SDK CNA the final treatment dose was 2 mg/kg with an injection volume of 100 μL. Once the mice were treated the tumor volume and body mass were measured for 18 days. The groups were formed with an N=6 mice. The tumor volume was calculated by the formula 0.5(l)×w2.

A549 cells = assay: Cell toxicity assay in A549 cells (resazurin); assay type: cell-based, human
Procedure: The cytotoxic effects of four MTM analogue nanoparticulate formulations were investigated in comparison to free drugs. A549 cells were cultured as specified from ATCC at 37° C., 5% CO2. The cells were seeded on a 96 well plate (5,000 cells/well) and allowed to adhere for 24 hrs. After 24 hrs growth media were replaced with fresh media containing samples at differing concentrations. 1% DMSO (biotechnological grade) was used as a control vehicle to prepare free drug formulations for SK and SDK. Self-assembled and cross-linked micelles were used as nanoparticulate formulations for SK and SDK. The cells were exposed to samples for 72 hrs total (n=8). Cell viability was assessed using a resazurin assay that indicates mitochondrial metabolic activity in live cells. 10 μL of a 1 mM resazurin solution in PBS was added to the vehicle- and drug-treated cells at the end of the treatment period. Cell viability was determined three hours later by reading the fluorescence at 560 nm (Ex)/590 nm (Em). The fluorescence signals were quantified using a Spectramax M5 plate reader (Molecular Devices) equipped with a SoftMaxPro software. Cytotoxicity was determined by calculating the half maximal inhibitory concentration (IC50) of each sample.

HT29 cells = assay: Cell toxicity assay in HT29 cells (resazurin); assay type: cell-based; settings: 72 hrs exposure
Procedure: The in vitro cytotoxic effects of the MTM loaded CNAs (Crosslinked Nano Assemblies) were investigated in comparison to free drugs. HT29 cells were cultured as specified from ATCC at 37° C., 5% CO2. The cells were seeded on a 96 well plate (5,000 cells/well) and allowed to adhere for 24 hrs. After 24 hrs growth media were replaced with fresh media containing drug and CNA samples at differing concentrations. Free drug formulations for SK and SDK and CNA formulations were prepared in filtered DI water. The cells were exposed to samples for 72 hrs total (n=4). Cell viability was assessed using a resazurin assay that indicates mitochondrial metabolic activity in live cells. 10 μL of a 1 mM resazurin (7-Hydroxy-3H-phenoxazin-3-one 10-oxide) solution in PBS was added to the vehicle- and drug-treated cells at the end of the treatment period. Cell viability was determined three hours later by reading the fluorescence at 560 nm (Ex)/590 nm (Em). The fluorescence signals were quantified using a Spectramax® M5 plate reader (Molecular Devices) equipped with a SoftMaxPro® software. Cytotoxicity was determined by calculating the half maximal inhibitory concentration (IC50) of each sample.

CO[C@H](C(=O)C(C)=O)[C@@H]1Cc2cc3cc(OC4C[C@@H](OC5C[C@@H](O)[C@H](O)C(C)O5)[C@H](O)C(C)O4)c(C)c(O)c3c(O)c2C(=O)[C@H]1OC1C[C@@H](OC2C[C@@H](OC3C[C@](C)(O)[C@H](O)C(C)O3)[C@@H](O)C(C)O2)[C@H](O)C(C)O1 (stereo partly shown) [SDK]
relative tumor regression as compared to the control (HT29 colon cancer cells): 48% | IC50 (A549 cells; 72 hrs exposure, resazurin assay): 93 ± 35 nM | Relative efficacy to free drug (A549 cells; relative to free drug = 1.00): 1.00 | IC50 (HT29 cells): 216 ± 4 nM
